For one data set, the system named is rat liver homogenate. The data set is described as follows: Indigoid-dye formation in rat liver homogenate. It counts as biochemical. Conditions: indoxyl 1 mM, 5% DMF, 37° C., 24 h. The method, then:
Finally, indigoid-dye formation was carried out in rat liver homogenate (Table 1, rightmost column).
Reactions in rat liver homogenate. An indoxyl compound in DMF (5 μL, 20 mM) was mixed with rat liver homogenate (95 μL). The reaction mixture was incubated at 37° C. for 24 h. After allowing to cool to room temperature, the reaction mixture was diluted with DMF (900 μL). The mixture was heated at 70° C. for 2 min and then centrifuged for 2 min. The supernatant was separated from any precipitate. This extraction procedure was repeated two or three times with DMF (100-500 μL). The combined supernatant (1500-1800 μL) was analyzed by absorption spectroscopy.

In the next data set the test system is tritosomes. The data set is described as follows: Indigoid dye formation with tritosomes. It counts as biochemical. The method, then: The results from the glucosidase survey prompted several further experiments. First, a parallel set of studies was carried out with inclusion of several oxidants commonly employed in histochemical studies, given that the indigoid dye forming process requires the presence of an oxidant. […] The activity of the β-glucosidase was affected only slightly in the presence of a non-ionic detergent. To verify that the results observed in Table 1 were reliable, a 5-mg scale reaction of 33 was carried out to isolate indigo 43, which was obtained in 66% yield (Scheme 7). The 66% isolated yield corresponded well with the enzymatic yield of […] (Table 1, entry 15).
General methods. β-Glucosidase from almonds (lyophilized powder, >2 units/mg solid) and peroxidase from horseradish were purchased from Sigma-Aldrich. O-Glucosidase from Agrobacterium sp. (recombinant, suspension in 3.2 M (NH4)2SO4) was purchased from Megazyme; the concentration in solution was determined by absorption spectroscopy with E^0.1%32 2.20 cm^−1 at 280 nm.^37 Tritosomes were purchased from XenoTech. Rat liver homogenate was purchased from MP Biomedicals.

The test system of data set [1] is β-glucosidase from almonds. The data set is described as follows: Indigogenic reaction with β-glucosidase from almonds. The data set is classed as biochemical. The text has this:
With diverse glucosyl-indoxyl compounds in hand, we carried out a set of studies to examine indigoid-dye formation upon enzymatic cleavage of the glucosyl unit under physiological conditions. Altogether, 14 new (15, 16, 19-27, 30, 33, 41) and 2 known (1, 42) synthetic indoxyl-glucosides (lacking acetyl protecting groups) were examined in an effort to identify suitable combinations of substituents to support both bioconjugation and indigoid dye formation. In initial studies, β-glucosidase from almonds was employed to trigger indigoid dye formation (Table 1). Thus, a mixture of this enzyme (1 unit/mL) and an indoxyl β-glucoside (0.1 μmol, 1 mM) in acetate buffer (pH 5, containing 5% DMF) was incubated at 37° C. for 16-19 h. All indigoid dye was dissolved in each case for quantitative evaluation.
Reactions with β-glucosidase from almonds. An indoxyl compound in DMF (5 μL, 20 mM) and β-glucosidase from almonds in H2O (10 μL, 10 units/mL) were mixed with acetate buffer (85 μL, 50 mM, pH 5.0). The reaction mixture was incubated at 37° C. for 16-19 h and then allowed to cool to room temperature. DMF (300 μL for the reactions of 15, 16, 1, 19, 22, and 25; or 900 μL for the reactions of 42, 20, 21, 23, 24, 26, 27, 30, and 31, respectively) was added to dissolve any indigoid precipitate. The resulting solution was analyzed by absorption spectroscopy.

Data set [2] concerns the target T1, β-glucosidase from Agrobacterium (Agrobacterium sp., UniProt P12614).
T1 construct: purchased Megazyme; host or cells: recombinant
T1 sequence (P12614 1-459): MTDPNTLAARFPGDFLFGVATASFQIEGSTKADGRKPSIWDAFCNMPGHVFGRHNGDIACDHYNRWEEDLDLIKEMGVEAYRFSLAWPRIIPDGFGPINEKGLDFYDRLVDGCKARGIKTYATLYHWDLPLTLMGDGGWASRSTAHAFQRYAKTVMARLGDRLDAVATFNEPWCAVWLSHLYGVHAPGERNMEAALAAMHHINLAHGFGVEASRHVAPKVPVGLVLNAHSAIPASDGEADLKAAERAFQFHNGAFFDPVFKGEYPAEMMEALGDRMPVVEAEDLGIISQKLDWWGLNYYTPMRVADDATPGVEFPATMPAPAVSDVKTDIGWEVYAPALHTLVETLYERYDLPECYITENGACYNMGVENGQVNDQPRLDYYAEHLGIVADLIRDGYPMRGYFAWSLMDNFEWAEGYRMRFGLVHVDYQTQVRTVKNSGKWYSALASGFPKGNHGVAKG
The data set is described as follows: Indigogenic reaction with β-glucosidase from Agrobacterium. The data set is classed as biochemical. The method, then: Next, the β-glucosidase from Agrobacterium sp. was investigated as the trigger enzyme for indigoid dye formation. […]
Reactions with β-glucosidase from Agrobacterium. An indoxyl compound in DMF (2 μL, 5 mM) and β-glucosidase from Agrobacterium in 10 mM phosphate buffer [2 μL, 10 μM, pH 7.0, containing 50 mM NaCl and 0.6 M (NH4)2SO4] were mixed with 50 mM phosphate buffer (96 μL, pH 7.0). The reaction mixture was incubated at 37° C. for 2 h and then centrifuged for 3 min. Any precipitate was separated from the supernatant and dissolved in DMF (200 μL). The resulting solution was analyzed by absorption spectroscopy. The experiment was repeated three times.

The target of data set [3] is T2, β-glucosidase from Agrobacterium plus rat liver homogenate (Agrobacterium sp., UniProt P12614).
T2 construct: purchased Megazyme; host or cells: recombinant
T2 sequence (P12614 1-459): T1 sequence (P12614 1-459)
The data set is described as follows: Reaction of 33 with β-glucosidase from Agrobacterium in rat liver homogenate. It counts as biochemical. Conditions: 33 100 μM, enzyme 200 nM, 2% DMF, 37° C., 4 h; ε = 2.6 × 10^4 M^-1 cm^-1. The method, then: Finally, indigoid-dye formation was carried out in rat liver homogenate (Table 1, rightmost column). Good yields were obtained in the case of 42 (65%, entry 4) and 27 (50%, entry 13). […] However, when β-glucosidase from Agrobacterium (200 nM) was present in rat liver homogenate, the indigoid dye was obtained in 81% yield (entry 15).
Reaction of 33 with β-glucosidase from Agrobacterium in rat liver homogenate. A DMF solution of 33 (2 μL, 5 mM) and β-glucosidase from Agrobacterium in 10 mM phosphate buffer [2 μL, 10 μM, pH 7.0, containing 50 mM NaCl and 0.6 M (NH4)2SO4] were mixed with rat liver homogenate (96 μL). The reaction mixture was incubated at 37° C. for 4 h and then centrifuged for 3 min. Any precipitate was separated from the supernatant and then suspended in DMF (200 μL). The suspension was centrifuged for 3 min. The supernatant was analyzed by absorption spectroscopy.

Data set [4] is classed as physicochemical. The conditions noted are these: pH 7.4. The text has this:
Water solubility of the indoxyl glucoside is important for biological applications. […] Therefore, this compound is not suitable for bioconjugation. The synthesis of 34 relies on successive substitution of the dichloroanilinotriazine unit (derived from N,N-bis(2-methoxyethyl)aniline^31 and cyanuric chloride) with indoxyl-glucoside-PEG-OH and BCN-PEG-NH2 building blocks.
To improve the water solubility of the indoxyl species, a sulfobetaine unit^32,33 was incorporated as a water-solubilizing group. Sulfobetaines are stable zwitterions over a wide range of pH. Synthesis of an indoxyl bearing a sulfobetaine unit is illustrated in Scheme 6. Boc-piperazine (35) was treated with 1,3-propane sultone to afford 36 in 63% yield. Quaternization of the tertiary nitrogen atom in 36 with 3-bromopropanol gave Boc-protected sulfobetaine 37 in 69% yield. The Boc group was cleaved with trifluoroacetic acid (TFA) to afford piperazine-TFA salt 38 in 97% yield. The N-acetyl group of 32 was selectively deprotected with NaHCO3/MeOH in 84% yield. The product 39, piperazine-TFA salt 38, and BCN-amine 14 were assembled at a triazine ring via one-flask, successive substitution of cyanuric chloride to afford 40 in 51% yield. Cleavage of the acetyl groups of sulfobetaine 40 provided 41 in 98% yield.

Where [5] appears, read: as E4 but ε = 2.6 × 10^4 M^-1 cm^-1 measured for 43.

Values joined by “and” are separate entries in the source; they are usually repeats but may differ in a detail not shown here. Equal values may be shown once.

As for “5-[(Benzylcarbamoyl)oxy)]-1H-indole-3-yl β-D-glucopyranoside [Indoxyl 16]”, the “Yield (%) rat liver homogenate” value with rat liver homogenate (ε = 1.27 × 10^4 M^-1 cm^-1) is reported as 9%. Also, the “Indigoid dye formation with tritosomes” value in the data set with tritosomes is on record as “low yield of indigoid dye”.

On to `COc1nc(Oc2ccc3[nH]cc(O[C@@H]4O[C@H](CO)[C@@H](O)[C@H](O)[C@H]4O)c3c2)nc(N2CCOCC2)n1` [Indoxyl 19, 5-[(4-Methoxy-6-morpholino-1,3,5-triazin-2-yl)oxy]-1H-indole-3-yl β-D-glucopyranoside], for which the “Yield (%) β-glucosidase from almonds” value in data set [1] (indoxyl 1 mM, enzyme 1 unit/mL, acetate buffer pH 5, 5% DMF, 37° C., 16-19 h, ε = 1.27 × 10^4 M^-1 cm^-1 (measured for 4)) is reported as less than 1%. Also, the “Yield (%) β-glucosidase from Agrobacterium” value in data set [2] (indoxyl 100 μM, enzyme 200 nM, 0.05 M phosphate buffer pH 7.0, 2% DMF, 37° C., 2 h, n=3, ε = 1.27 × 10^4 M^-1 cm^-1) worked out at 46 ± 5%. Besides, in the data set with rat liver homogenate (ε = 1.27 × 10^4 M^-1 cm^-1), the “Yield (%) rat liver homogenate” value is on record as less than 5%. Besides, the “Indigoid dye formation with tritosomes” value in the data set with tritosomes is “low yield of indigoid dye”.

For the compound `OCCOCCOCCOc1c(Br)cc2[nH]cc(O[C@@H]3O[C@H](CO)[C@@H](O)[C@H](O)[C@H]3O)c2c1Br` [Indoxyl 33, 4,6-Dibromo-5-[1-hydroxy-3,6,9-trioxanon-9-yl]-1H-indol-3-yl β-D-glucopyranoside], the “Yield (%) β-glucosidase from almonds” value in data set [1] (as E1 but ε = 2.6 × 10^4 M^-1 cm^-1 measured for 43) is 52% and 52^g %. Also, the “Yield of indigoid dye” value in data set [2] (33 at 1.0 μM, enzyme 200 nM, pH 7.0, 2 h) came out at 41%; in data set [2] (33 at 1.0 μM, enzyme 200 nM, pH 7.0, 14 h), 57%; in data set [2] (33 at 1.8 μM, enzyme 200 nM, pH 7.0, 2 h), 42%; in data set [2] (33 at 1.8 μM, enzyme 200 nM, pH 7.0, 14 h), 79%; in data set [2] (33 at 3.2 μM, enzyme 200 nM, pH 7.0, 2 h), 51%; in data set [2] (33 at 3.2 μM, enzyme 200 nM, pH 7.0, 14 h) it was 88%. Moreover, the “Yield of indigoid dye” value is 62% in data set [2] (33 at 5.6 μM, enzyme 200 nM, pH 7.0, 2 h); 90% in data set [2] (33 at 10 μM, enzyme 200 nM, pH 7.0, 2 h); 85% in data set [2] (33 at 18 μM, enzyme 200 nM, pH 7.0, 2 h); 86% in data set [2] (33 at 32 μM, enzyme 200 nM, pH 7.0, 2 h); 89% in data set [2] (33 at 56 μM, enzyme 200 nM, pH 7.0, 2 h); 6% in data set [2] (pH 4, 33 100 μM, enzyme 200 nM, phosphate buffer, 37° C., 3 h). Further, the “Yield of indigoid dye” value in data set [2] (pH 5, 33 100 μM, enzyme 200 nM, phosphate buffer, 37° C., 3 h) is recorded as 38%; in data set [2] (pH 6-8, 10 nM enzyme, 33 100 μM, 2 h) it was 50-71%; in data set [2] (pH 6-9, 33 100 μM, enzyme 200 nM, 3 h), “High to quantitative yields”. Also, the “Yield (%) β-glucosidase from Agrobacterium” value in data set [2] (setting [5]) is 99% and 99 ± 5^g %. Moreover, in the data set on rat liver homogenate (ε = 2.6 × 10^4 M^-1 cm^-1 measured for 43), the “Yield (%) rat liver homogenate” value is less than 5%. The “Yield (%) β-glucosidase from Agrobacterium plus rat liver homogenate” value in data set [3] was 81% and 81 ± 5%.

Regarding `O=C(NCCOCCOCCNc1nc(OCCOCCOCCOc2c(Br)cc3[nH]cc(OC4O[C@H](CO)[C@@H](O)[C@H](O)[C@H]4O)c3c2Br)nc(N2CC[N+](CCCO)(CCCS(=O)(=O)[O-])CC2)n1)OC[C@@H]1[C@@H]2CCC#CCC[C@@H]21` (stereo partly drawn) [Indoxyl 41], the “Yield (%) β-glucosidase from Agrobacterium” value in data set [2] (setting [5]) was 106% and 106 ± 4^g %. The compound also gave a Solubility in data set [4] of more than 400 µM.

The record behind these values is patent publication US20220267479A1, “POLYIODIDE BINDING COMPOUNDS AND METHODS OF USE THEREOF” (North Carolina State University, priority 2019, published 2022).
